In patent US12018059B2, “Human amylin analog polypeptides and methods of use” (Intarcia Therapeutics, Inc., priority 2018, dated 2024):
Values after ≈ are worked out from the molar mass of the structure shown. Like-named read-outs stand apart in the source and are kept apart here. Each block holds one molecule with its values, some of them ahead of it. Starred links: 1 amine or outer side, 2 acyl side, 3 side chain; linkers in the order of their positions; H or OH if unused. Positions of bridges follow the written chain, without caps; N, C: chain ends. Non-standard residues stand in square brackets, D forms with d. Residues, ends and D or L forms follow the SMILES beside them. Groups on a side chain read outwards from the residue. *: point of attachment. γGlu = O=C(O)[C@H](CCC(=O)[*:2])N[*:1]; Palmitoyl = CCCCCCCCCCCCCCCC(=O)*

Assays:
[1] = Solubility of amylin analog polypeptides (visual inspection, room temperature); assay type: physicochemical; details: Solubility
Protocol: The analog polypeptides described herein were tested for solubility in saline 20% DMSO in water (i.e., bioassay buffer) or in aqueous (DI water) at room temperature. Samples were visually inspected for clarity of the sample, any appearance of turbidity or haziness.

[2] = 13-day dose-response body weight loss, continuous SC infusion by osmotic mini-pump; details: 13 days, LE DIO rats
[3] = Acute food intake inhibition after SC bolus injection (BioDAQ); details: Long Evans rats on 45% high fat diet
in vivo = test: in vivo; set-up: species or system Sprague-Dawley rats; details: male, Sprague-Dawley, rat, iv, 0.033 mg/kg
Method in brief: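 Male Sprague-Dawley rats, non-fasted (n=3), given peptide in saline as 1-h IV or SC infusion at 0.033 mg/kg, or SC bolus at 0.3 mg/kg; jugular blood to 48 h into K2EDTA plus protease inhibitors. Plasma extracted by precipitation or WCX solid-phase extraction, quantified by UPLC-MS/MS against standards in matching rat plasma.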

[4] = 27-day weight loss in combination with exenatide; details: LE DIO rats
[5] = 27-day HbA1c change in combination with exenatide; details: dose 30 mcg/kg + Exenatide 10 mcg/kg, ZDF rats
[6] = in vivo; cited from earlier work
[7] = in serum; cited from earlier work

- solubility [1]: 80.6 mg/mL (≈ 18 mM)
- Vd (in vivo): 0.174 L/kg
- clearance (in vivo): 0.478 mL/min/kg
- half-life (in vivo): 5.16 h
Molecule: CCCCCCCCCCCCCCCC(=O)N[C@@H](CCC(=O)N[C@@H](CCC(=O)NCCCC[C@@H](NC(=O)[C@H](CCC(=O)O)NC(=O)[C@H](CC(N)=O)NC(=O)[C@H](C)NC(=O)[C@H](CC(C)C)NC(=O)[C@H](CCCNC(=N)N)NC(=O)[C@H](CCC(N)=O)NC(=O)[C@@H](NC(=O)[C@H](C)NC(=O)[C@@H]1CSSC[C@H](NC(=O)[C@@H](N)CO)C(=O)N[C@@H](CC(N)=O)C(=O)N[C@@H]([C@@H](C)O)C(=O)N[C@@H](CO)C(=O)N[C@@H]([C@@H](C)O)C(=O)N1)[C@@H](C)O)C(=O)N[C@@H](Cc1c[nH]cn1)C(=O)N[C@@H](CCCCN)C(=O)N[C@@H](CO)C(=O)N[C@@H](CO)C(=O)N[C@@H](CC(N)=O)C(=O)N[C@@H](CC(N)=O)C(=O)N[C@@H](Cc1ccccc1)C(=O)NCC(=O)N1CCC[C@H]1C(=O)N[C@H](C(=O)N[C@@H](CC(C)C)C(=O)N1CCC[C@H]1C(=O)N1CCC[C@H]1C(=O)N[C@H](C(=O)N[C@@H](CCCCN)C(=O)N[C@H](C(=O)NCC(=O)N[C@@H](CO)C(=O)N[C@@H](CCC(=O)O)C(=O)N[C@H](C(=O)N[C@@H](Cc1ccc(O)cc1)C(N)=O)[C@@H](C)O)C(C)C)[C@@H](C)O)[C@@H](C)CC)C(=O)O)C(=O)O [Compound A27] (H-SCNTSTCATQRLANE[dK]([γGlu-γGlu-Palmitoyl])HKSSNNFGPILPPTKVGSETY-NH2; disulfide 2-7; N-terminus assumed)
- DIO Dose Response 13 d weight loss, ED50 [2]: 0.036 mg/kg
- DIO Dose Response 13 d weight loss, ΔΔ % weight loss ([2]; from baseline and vehicle control): 5%
- Acute Food Intake % Inhibition vs vehicle ([3]; 0-24 hr after acute SC dosing): 86%
- Acute Food Intake % Inhibition vs vehicle ([3]; 25-48 hr after acute SC dosing): 57%
- Acute Food Intake % Inhibition vs vehicle ([3]; 49-72 hr after acute SC dosing): 13%
- DIO Combination + Exenatide 27 d weight loss, ΔΔ % weight loss ([4]; dose 3 mcg/kg + Exenatide 10 mcg/kg): 9%
- DIO Combination + Exenatide 27 d weight loss, ΔΔ % weight loss ([4]; dose 10 mcg/kg + Exenatide 10 mcg/kg): 12%
- DIO Combination + Exenatide 27 d weight loss, ΔΔ % weight loss ([4]; dose 30 mcg/kg + Exenatide 10 mcg/kg): 17%
- ZDF Combination + Exenatide 27 d HbA1c (%), ΔΔ % HbA1c [5]: 3.3%

Molecule: davalintide
- half-life [6]: about 26 minutes

Molecule: human amylin (KCNTATCATQRLANFLVHSSNNFGAILSSTNVGSNTY) [37-residue polypeptide hormone co-secreted with insulin from pancreatic β-cells]
- half-life [7]: about 13 minutes
